{
  "source": "patent US5451522A",
  "about": "“Genes encoding and method of expressing an enzyme: phthalyl amidase” (priority 1994, dated 1995)",
  "key": {"phthalyl amidase [1]": {"molecular_target": "T1, phthalyl amidase (Xanthobacter agilis, UniProt P0C2Y0)", "T1 construct": "42-aa signal peptide removed", "T1 sequence (P0C2Y0 2-453)": "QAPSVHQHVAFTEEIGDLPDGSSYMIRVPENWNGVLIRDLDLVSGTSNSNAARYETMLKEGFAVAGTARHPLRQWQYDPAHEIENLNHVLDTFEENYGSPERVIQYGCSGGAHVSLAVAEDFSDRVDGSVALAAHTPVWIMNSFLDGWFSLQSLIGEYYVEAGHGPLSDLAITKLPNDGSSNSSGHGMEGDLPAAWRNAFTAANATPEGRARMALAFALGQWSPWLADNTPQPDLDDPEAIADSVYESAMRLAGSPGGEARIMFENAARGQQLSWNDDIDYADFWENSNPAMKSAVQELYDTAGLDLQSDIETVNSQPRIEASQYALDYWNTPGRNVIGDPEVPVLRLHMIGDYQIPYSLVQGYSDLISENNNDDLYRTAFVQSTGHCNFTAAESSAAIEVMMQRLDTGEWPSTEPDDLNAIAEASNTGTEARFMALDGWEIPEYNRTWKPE", "assay": "Influence of effectors and organic solvents on enzyme activity", "type": "biochemical", "details": "for % of Control Activity / remaining activity at 1000 µM: agent at 1 mM final concentration; for remaining activity at 1000 µM: read-out: % of Control Activity; for remaining activity at 1 % / remaining activity at 5 % / remaining activity at 10 %: 20 min, read-out: % Residual enzyme activity; for remaining activity at 1 %: solvent 1.0%; for remaining activity at 5 %: solvent 5.0%; for effect on enzyme activity (in words): 1 mM unless otherwise indicated, iodoacetic acid 10 mM", "procedure": "A typical reaction mixture consisted of 1 ml total volume and contained 0.1 mM III, 0.1 μM phthalyl amidase in 50 mM potassium phosphate buffer (pH 5.5-9.0) at 32° C. for 20 minutes. The reactions were stopped by the addition of 1 ml methanol. After removal of precipitate by centrifugation, an aliquot of the supernatant fraction (typically 30 μ) was monitored for the beta-lactam nucleus and phthalic acid by HPLC using a Zorbax C8 column (0.46×15 cm; MacMod Analytical Inc., Chadds Ford, Pa.). The two reaction products were eluted by a mobile phase constructed as continuous mixed gradients from (a) 1% ACN (acetonitrile)/0.2% TFA (trifluoroacetic acid) and (b) 80% ACN/0.2% TFA as follows: 1) 0% (b), 3 min; 2) 0-50% (b), 0.5 min; 3) 50-100% (b), 3 min; 4) 100% (b), 2.5 min; 5) 100-0% (b), 0.1 min; and 6) 0% (b), 5 min.\nThe effect of various agents on the enzymatic activity of phthalyl amidase was determined using standard conditions (see Example 5). All agents were tested at 1 mM final concentration unless otherwise indicated."}, "phthalyl amidase [2]": {"molecular_target": "T1, phthalyl amidase", "assay": "Substrate specificity: chemical structure requirements for enzyme activity", "type": "biochemical", "details": "for Relative Activity: 2.5 μmol compound, 0.3 units enzyme; for suitability as substrate (in words): Tables 10 and 11", "procedure": "The activity of phthalyl amidase against 25 compounds was determined. The compounds were divided into beta-lactams (Table 9), phthalyl amides (Table 10), and aromatic ring substituted amides (Table 11). Each reaction mixture (1 ml total volume) contained 2.5 μmol of compound and 0.3 units of enzyme (based on the chromogenic substrate) of the preparative scale purified enzyme, in 50 mM phosphate buffer, pH 8.0. The reactions were conducted at 30° C. Samples of the reaction mixture were taken at various times, and methanol (equal volume) was added to stop the reaction. The samples were examined by HPLC to determine the extent of substrate hydrolysis. The amount of compound hydrolyzed was calculated from a standard curve of the test compound. All substrates were stable in buffer at 30° C. and pH 8.0 in the absence of enzyme for 24 hours."}, "[3]": {"details": "Table 11 aromatic ring substituted amides, XVII = 100.0, pH 8.0, 30° C."}},
  "note": "Entries after “also recorded” stand apart in the source; their conditions may differ.",
  "data": [
    {"smiles": "[Cl][Mn][Cl]", "note": "[MnCl2]", "values": [
      {"measurement": "% of Control Activity", "setting": "phthalyl amidase [1]", "result": 84, "unit": "%"}
    ]},
    {"smiles": "[Ca+2].[Cl-].[Cl-]", "note": "[CaCl2]", "values": [
      {"measurement": "% of Control Activity", "setting": "phthalyl amidase [1]", "result": 89, "unit": "%"}
    ]},
    {"smiles": "Cc1ncc(COP(=O)(O)O)c(C=O)c1O", "note": "[PLP, pyridoxyl5-phosphate]", "values": [
      {"measurement": "remaining activity at 1000 µM", "setting": "phthalyl amidase [1]", "result": 106, "unit": "%"}
    ]},
    {"smiles": "CCCCCCC(C(=O)O)n1cnc(NC(=O)c2cccc(O)c2)c1", "note": "(stereo not drawn) [XXVI]", "values": [
      {"measurement": "Relative Activity", "setting": "phthalyl amidase [2]; [3]", "result": 0}
    ]},
    {"smiles": "[Cl-].[K+]", "note": "[KCl]", "values": [
      {"measurement": "% of Control Activity", "setting": "phthalyl amidase [1]", "result": 100, "unit": "%"}
    ]},
    {"smiles": "O=C(O)CN1C(=O)C(NC(=O)COc2ccccc2)C1CCc1ccco1", "note": "(stereo not drawn) [IV]", "values": [
      {"measurement": "Relative Activity", "setting": "phthalyl amidase [2]; Table 9 beta-lactams, III = 100, 50 mM phosphate pH 8.0, 30° C.", "result": 0}
    ]},
    {"smiles": "CCN1C(=O)C=CC1=O", "note": "[NEM, Nethylmaleimide]", "values": [
      {"measurement": "remaining activity at 1000 µM", "setting": "phthalyl amidase [1]", "result": 100, "unit": "%"}
    ]},
    {"smiles": "CCCCCCC(C(=O)O)n1cnc(NC(=O)c2ccccc2C(=O)O)c1", "note": "(stereo not drawn) [XIII]", "values": [
      {"measurement": "suitability as substrate (in words)", "setting": "phthalyl amidase [2]", "result": "most active compound found"}
    ]},
    {"smiles": "C[S+](C)[O-]", "note": "[DMSO, dimethyl sulfoxide]", "values": [
      {"measurement": "remaining activity at 1 %", "setting": "phthalyl amidase [1]", "result": 101, "unit": "%"},
      {"measurement": "remaining activity at 5 %", "setting": "phthalyl amidase [1]", "result": 80, "unit": "%"},
      {"measurement": "remaining activity at 10 %", "setting": "phthalyl amidase [1]; solvent 10.0%", "result": 71, "unit": "%"}
    ]},
    {"smiles": "CO", "note": "[Methanol]", "values": [
      {"measurement": "remaining activity at 1 %", "setting": "phthalyl amidase [1]", "result": 100, "unit": "%"},
      {"measurement": "remaining activity at 5 %", "setting": "phthalyl amidase [1]", "result": 90, "unit": "%"},
      {"measurement": "remaining activity at 10 %", "setting": "phthalyl amidase [1]; solvent 10.0%", "result": 69, "unit": "%"}
    ]},
    {"smiles": "[Cl][Cu][Cl]", "note": "[CuCl2]", "values": [
      {"measurement": "effect on enzyme activity (in words)", "setting": "phthalyl amidase [1]; listed as Cu^++", "result": "significantly inhibited"},
      {"measurement": "effect on enzyme activity (in words)", "setting": "phthalyl amidase [1]; listed as copper ions", "result": "significantly reduced"},
      {"measurement": "% of Control Activity", "setting": "phthalyl amidase [1]", "result": 36, "unit": "%"}
    ]},
    {"smiles": "CCCCCCC(C(=O)O)n1cnc(NC(=O)c2cccc(C(=O)O)c2)c1", "note": "(stereo not drawn) [XXIV]", "values": [
      {"measurement": "Relative Activity", "setting": "phthalyl amidase [2]; [3]", "result": 0},
      {"measurement": "suitability as substrate (in words)", "setting": "phthalyl amidase [2]", "result": "completely eliminates hydrolytic activity"}
    ]},
    {"smiles": "OCCS", "note": "[Mercaptoethanol]", "values": [
      {"measurement": "remaining activity at 1000 µM", "setting": "phthalyl amidase [1]", "result": 105, "unit": "%"}
    ]},
    {"smiles": "OCC(O)CO", "note": "[Glycerol]", "values": [
      {"measurement": "remaining activity at 1 %", "setting": "phthalyl amidase [1]", "result": 100, "unit": "%"},
      {"measurement": "remaining activity at 5 %", "setting": "phthalyl amidase [1]", "result": 94, "unit": "%"},
      {"measurement": "remaining activity at 10 %", "setting": "phthalyl amidase [1]; solvent 10.0%", "result": 85, "unit": "%"},
      {"measurement": "% Residual enzyme activity", "setting": "phthalyl amidase [1]; solvent 10.0%", "result": "least amount of inhibition"}
    ]},
    {"smiles": "CCCCCCC(C(=O)O)n1cnc(NC(=O)c2ccc(C(=O)O)cc2)c1", "note": "(stereo not drawn) [XXIII]", "values": [
      {"measurement": "Relative Activity", "setting": "phthalyl amidase [2]; [3]", "result": 0},
      {"measurement": "suitability as substrate (in words)", "setting": "phthalyl amidase [2]", "result": "completely eliminates hydrolytic activity"}
    ]},
    {"smiles": "CCCCCCC(C(=O)O)n1cnc(NC(=O)c2cccc(O)c2C(=O)O)c1", "note": "(stereo not drawn) [XXI]", "values": [
      {"measurement": "Relative Activity", "setting": "phthalyl amidase [2]; [3]", "result": 1.3},
      {"measurement": "suitability as substrate (in words)", "setting": "phthalyl amidase [2]", "result": "acceptable"}
    ]},
    {"smiles": "O[C@H](CS)[C@H](O)CS", "note": "(racemic) [DTT, dithiothreitol]", "values": [
      {"measurement": "remaining activity at 1000 µM", "setting": "phthalyl amidase [1]", "result": 100, "unit": "%"}
    ]},
    {"smiles": "c1cnc2c(c1)ccc1cccnc12", "note": "[Phenanthroline]", "values": [
      {"measurement": "effect on enzyme activity (in words)", "setting": "phthalyl amidase [1]", "result": "little or no effect"},
      {"measurement": "remaining activity at 1000 µM", "setting": "phthalyl amidase [1]", "result": 104, "unit": "%"}
    ]},
    {"smiles": "Nc1ncnc2c1ncn2[C@@H]1O[C@H](COP(=O)(O)OP(=O)(O)OP(=O)(O)O)[C@@H](O)[C@H]1O", "note": "[ATP, adenosine 5triphosphate]", "values": [
      {"measurement": "remaining activity at 1000 µM", "setting": "phthalyl amidase [1]", "result": 96, "unit": "%"}
    ]},
    {"smiles": "CC(C)(COP(=O)(O)OP(=O)(O)OC[C@H]1O[C@@H](n2cnc3c(N)ncnc32)[C@H](O)[C@@H]1OP(=O)(O)O)[C@@H](O)C(=O)NCCC(=O)NCCS", "note": "[CoASH]", "values": [
      {"measurement": "remaining activity at 1000 µM", "setting": "phthalyl amidase [1]", "result": 102, "unit": "%"}
    ]},
    {"smiles": "CCCCCCC(C(=O)O)n1cnc(NC(=O)c2cc(O)cc(O)c2)c1", "note": "(stereo not drawn) [XXVII]", "values": [
      {"measurement": "Relative Activity", "setting": "phthalyl amidase [2]; [3]", "result": 0}
    ]},
    {"smiles": "O=C(O)c1cc[c]([Hg][OH])cc1", "note": "[p-HMB, parahydroxy mercuric benzoate]", "values": [
      {"measurement": "effect on enzyme activity (in words)", "setting": "phthalyl amidase [1]", "result": "significantly reduced; also recorded: significantly inhibited"},
      {"measurement": "% of Control Activity", "setting": "phthalyl amidase [1]", "result": 65, "unit": "%"}
    ]}
  ]
}
